Where two headings read alike, the source gives them in different places.
Assays:
[1] = tested on: HIV-1 subtype C MW/93/959; assay: Inhibitory activity against clinical HIV-1 strain MW/93/959 in PBMC; format: cell-based; conditions: for EC50: read-out: hPBMC/HIV-1 EC50; for EC90: read-out: hPBMC/HIV-1 EC90
Method: (§1) Preparation of virus: Clinical HIV-1 virus strains (Table 3) were obtained from the US NIH AIDS Research and Reference Reagent Library. PBMC were extracted from three fresh blood samples that were HIV and HBV seronegative, mixed and cultured, and PHA-P (phytohemagglutinin) was added to stimulate activation. The cells and virus were incubated at 37° C./5% CO2, and the cell culture supernatant after infection was collected and stored frozen at −80° C. Each viral titer was titrated in pooled PBMCs from three donors.
(§2) Assay of antiviral activity of compounds: Frozen PBMCs were resuspended in fresh culture medium (1×10^6 cells/mL), and added to a round-bottom 96-well plate ([…]). 100 μl of culture medium containing 2 times the final concentration of the compound was added to each well, and then 50 μL of virus solution was added (the final infection dose was MOI=0.002). After 7 days of culture, the reverse transcriptase activity in the supernatant was determined to evaluate HIV-1 replication. At the same time, a 96-well culture plate with only compounds and cells was prepared for the assay of compound cytotoxicity.

[2] = tested on: HIV-1 subtype D UG/92/001; assay: Inhibitory activity against clinical HIV-1 strain UG/92/001 in PBMC; format: cell-based; conditions: for EC50: read-out: hPBMC/HIV-1 EC50; for EC90: read-out: hPBMC/HIV-1 EC90
Method: as §1, §2

[3] = tested on: human immunodeficiency virus type 1 IIIB strain (HIV-1IIIB); assay: Cell protection assay against HIV infection (MT-4 cells, XTT); format: cell-based; conditions: for CC50/EC50: MT-4 cells, HIV-1IIIB
Method: The protective effect of the test compound on MT-4 cells infected by human immunodeficiency virus type 1 IIIB strain (HIV-1IIIB) at different concentrations was evaluated.
The test compound was dissolved in DMSO at a concentration of 10 mM and stored at −20° C.
2) Test of the anti-HIV-1 IIIB infection activity of the compound: A starting concentration of 10 nM was used, and five serial five-fold dilutions were carried out on the compound. Each compound was present in the test medium at a concentration 2 folds of the final desired test concentration. 100 microliters (100 μL) of the solution of each concentration was added to triplicate wells for efficacy evaluation, and each concentration was added one well for colorimetric evaluation. AZT was purchased from Sigma Aldrich (St. Louis, MO, USA), and evaluated as a control compound in the antiviral assay.
(§3) Cell culture: MT-4 cells were passaged in a T-75 flask before use in the antiviral assay. On the day before the assay, cells were passaged in aliquots at a 1:2 ratio to ensure that they were in the exponential growth phase at the time of infection. Total cells and viable cells were quantified using a hemocytometer and trypan blue dye. The proportion of viable cells used for the assay was greater than 95%. The cells were resuspended in tissue culture medium at 5×10^4 cells per milliliter, and the resulting suspension was added to a drug-containing microtiter plate in a volume of 50 μL.
Virus preparation: The virus used for this assay was lymphotropic virus strain HIV-1IIIB. The viruses were amplified in CEM-SS cells for the preparation of virus stock solution. The pre-titered virus aliquot tube was taken from the refrigerator (−80° C.), and slowly thawed to room temperature in a biosafety cabinet. The viruses were diluted in the tissue culture medium. 50 μl of the diluted virus would produce 85% to 95% cell killing 6 days after infection. 50 μL of the diluted virus was added immediately to the microtiter plate containing cells and drugs.
(§4) Evaluation of the efficacy and toxicity of the compound with XTT: After culturing for six days in a 37° C., 5% CO2 incubator, tetrazolium dye XTT (2,3-bis(2-methoxy-4-nitro-5-sulfophenyl)-5-[(phenylamino)carbonyl]-2H-tetrazolium hydroxide) was added to the cell culture plate to conduct the test. The XTT solution was a 1 mg/ml RPMI1640 stock solution prepared on the same day. Phenazine methyl sulfate (PMS) solution at a concentration of 0.15 mg/ml was prepared in PBS, and stored in the dark at −20° C. XTT/PMS stock solution was prepared before use by adding 40 μl of PMS per milliliter of XTT solution. […] of XTT/PMS was added to each well of the plate, and the plate was re-incubated for 4 hours at 37° C. The plate was sealed with adhesive plate sealant, and gently shaked or inverted several times to mix the soluble formazan product. The absorbance was read at 450/650 nm.

[4] = tested on: MT-4 cells; assay: Test of cytotoxicity of the compound (MT-4 cells, XTT); format: cell-based; conditions: 6 days
Method: (§5) 1) Test of cytotoxicity of the compound: The test compound was evaluated using a starting concentration of 100 nM and five serial half-log dilutions. Each compound was present in the test medium at a concentration 2 folds of the final desired test concentration. The compound was diluted to 1 mM in DMSO. The compound was then diluted to 200 nM in a drug dilution tube containing 998 μL of test medium (adding 2 μL of 1 mM stock). […] of the 200 nM solution was transferred into 680 μL of the test medium (half-log dilution), and a total of five serial dilutions were carried out. 100 microliters (100 μL) of the solution of each concentration was added to duplicate wells for cytotoxicity evaluation, and each concentration was added to one well for colorimetric evaluation.
as §3, §4

[5] = tested on: HIV-1 subtype A RW/92/009; assay: Inhibitory activity against clinical HIV-1 strain RW/92/009 in PBMC; format: cell-based; conditions: for EC50: read-out: hPBMC/HIV-1 EC50; for EC90: read-out: hPBMC/HIV-1 EC90
Method: as §1, §2

[6] = tested on: WT (wild type) pseudovirus; assay: Pseudovirus-based assay of anti-HIV-1 activity, WT strain; format: cell-based; conditions: HEK-293T, 72 h
Method: (§6) The inhibitory activity against pseudoviruses containing common clinical mutation sites of HIV-1 integrase (G140S/Q148R, Q148R/N155H, E138K, Q148H, R263K and Y143R/Q148H) was determined.
(§7) Preparation of pseudovirus: Using the lentiviral plasmid pNL4-3-Luc-RE (HedgehogBio) as the backbone, an integrase point mutation plasmid was constructed. HEK293T cells (ATCC) were seeded in a 6-well plate at 5×10^5 cells per well. After 24 hours, when the cell density reached 60% to 80%, transfection was performed. pNL4-3-Luc-R-E- or pNL4-3-Luc-R-E--IN-mutant plasmid and lentivirus packaging plasmid pMD2.G (Beijing Zoman Bio) were added to the transfection reagent in a certain proportion. Cell transfection was performed according to the instructions of transfection reagent PEI25K (Maokang Biotechnology). After 48 hours, the supernatant was collected, centrifuged at 3000 rpm for 5 minutes, filtered with a 0.45 μm microporous membrane, aliquoted, and stored at −80° C. for later use. In HEK293T cells, the pseudovirus titer was determined based on luciferase activity.
(§8) Determination of antiviral activity of compounds: In a 96-well V-bottom plate, the compound to be tested was diluted with DMSO semi-logarithmically, and a compound solution 4 times the final concentration was prepared for later use. According to the results of different virus titrations, the virus was diluted with complete culture medium for later use. HEK293T cells were digested with trypsin to obtain a cell suspension of 2×10^5/mL. 50 µl of compound diluent, 50 µl of virus diluent and 100 µl of cell suspension were added successively to a 96-well flat-bottomed plate. The final concentration of the compound was 1000 nM to 0.1 nM. The 96-well plate was incubated in a 37° C., 5% CO2 incubator. After 72 hours, 100 µL of culture supernatant was pipetted out carefully from each well of the 96-well plate, 25 µL of Steady-Glo detection reagent (Promega, Cat #E2550) was added to each well in the dark, and then assayed on a machine (Tecan, Type #Spark).

[7] = tested on: HIV-1 integrase Y143R/Q148H pseudovirus; assay: Pseudovirus-based assay of anti-HIV-1 activity, Y143R/Q148H strain; format: cell-based; conditions: HEK-293T, 72 h
Method: as §6, §7, §8

[8] = Test of cytotoxicity of the compound (MT-4 cells, XTT); format: cell-based; conditions: human
Method: as §5, §3, §4

[9] = tested on: HIV-1 integrase E138K pseudovirus; assay: Pseudovirus-based assay of anti-HIV-1 activity, E138K strain; format: cell-based; conditions: HEK-293T, 72 h
Method: as §6, §7, §8

[10] = tested on: HIV-1 integrase R263K pseudovirus; assay: Pseudovirus-based assay of anti-HIV-1 activity, R263K strain; format: cell-based; conditions: HEK-293T, 72 h
Method: as §6, §7, §8

[11] = tested on: HIV-1 integrase Q148H pseudovirus; assay: Pseudovirus-based assay of anti-HIV-1 activity, Q148H strain; format: cell-based; conditions: HEK-293T, 72 h
Method: as §6, §7, §8

[12] = tested on: HIV-1 integrase G140S/Q148R pseudovirus; assay: Pseudovirus-based assay of anti-HIV-1 activity, G140S/Q148R strain; format: cell-based; conditions: HEK-293T, 72 h
Method: as §6, §7, §8

[13] = tested on: HIV-1 integrase Q148R/N155H pseudovirus; assay: Pseudovirus-based assay of anti-HIV-1 activity, Q148R/N155H strain; format: cell-based; conditions: HEK-293T, 72 h
Method: as §6, §7, §8

[14] = tested on: HIV-1 clinical isolates (RW/92/009, MW/93/959, UG/92/001); assay: Clinical HIV-1 isolates in human PBMC (overall comparison); format: cell-based; conditions: RW/92/009, MW/93/959, UG/92/001 in human PBMC
Method: as §1, §2

[15] = tested on: common clinical integrase mutant strains (G140S/Q148R, Q148R/N155H, E138K, Q148H, R263K and Y143R/Q148H); assay: Pseudovirus assay, common clinical integrase mutant strains (overall comparison); format: cell-based, HIV-1; conditions: R263K and Y143R/Q148H pseudoviruses
Method: as §6, §7
Determination of antiviral activity of compounds: In a 96-well V-bottom plate, the compound to be tested was diluted with DMSO semi-logarithmically, and a compound solution 4 times the final concentration was prepared for later use. […]

[16] = MW/93/959, human PBMC, 7 days, reverse transcriptase activity in supernatant
[17] = UG/92/001, human PBMC, 7 days, reverse transcriptase activity in supernatant
[18] = RW/92/009, human PBMC, 7 days, reverse transcriptase activity in supernatant
[19] = Human immunodeficiency virus 1, 168 h, MW/93/959, human PBMC, 7 days, reverse transcriptase activity in supernatant
[20] = Human immunodeficiency virus 1, 168 h, UG/92/001, human PBMC, 7 days, reverse transcriptase activity in supernatant
[21] = Human immunodeficiency virus 1, 168 h, RW/92/009, human PBMC, 7 days, reverse transcriptase activity in supernatant
[22] = Human immunodeficiency virus 1, IIIB, MT4, 144 h
[23] = Human immunodeficiency virus 1, PBMC, 168 h

SMILES | CC50/EC50 [3] | EC50 [6] [nM] | EC90 [6] [nM] | EC50 [7] [nM] | EC90 [7] [nM] | CC50 at 6 days [8] [nM] | EC50 [9] [nM] | EC90 [9] [nM] | EC50 [10] [nM] | EC90 [10] [nM] | EC50 [11] [nM] | EC90 [11] [nM] | EC50 [12] [nM] | EC90 [12] [nM] | EC50 [13] [nM] | EC90 [13] [nM] | EC50 [3, 22] [nM] | further results
Cc1cn([C@H]2C[C@H](N=[N+]=[N-])[C@@H](CO)O2)c(=O)[nH]c1=O [AZT] | >250 |  |  |  |  |  |  |  |  |  |  |  |  |  |  |  |  | EC50 [1, 16]: 0.31 nM; EC90 [1, 16]: 38.6 nM; EC50 [2, 17]: 4.02 nM; EC90 [2, 17]: 62 nM; EC50 ([3]; MT-4 cells infected by HIV-1IIIB, 6 days, XTT, read-out: EC50): 2 nM; CC50 [4]: > 500 nM; EC50 [5, 18]: 3.58 nM; EC90 [5, 18]: 75.5 nM
C[C@H]1CO[C@@H]2Cn3cc(C(=O)NCc4ccc(F)cc4F)c(=O)c(O)c3C(=O)N12 [Cabotegravir, cabotegravir] | >41.7 | 3 | 21.8 | 4.2 | 24.8 | > 100 | 3.7 | 24.4 | 4.9 | 58.8 | 3.6 | 15.4 | 63.5 | 301 | 98 | > 1000 |  | EC50 [1, 19]: 0.06 nM; EC90 [1, 19]: 0.67 nM; EC50 [2, 20]: 0.46 nM; EC90 [2, 20]: 2.94 nM; EC50 ([3]; Human immunodeficiency virus 1, MT4, 144 h, MT-4 cells infected by HIV-1IIIB, 6 days, XTT, read-out: EC50): 2.4 nM; EC50 [5, 21]: 0.09 nM; EC90 [5, 21]: 0.59 nM
O=C(NCc1ccc(F)cc1F)c1cn2c(c(O)c1=O)C(=O)N1[C@@H](C3CC3)CO[C@@H]1C2 [Compound 1] | >32.1 | 3.3 | 29.1 | 21.3 | 193 | > 100 | 5.1 | 27.1 | 6.5 | 58.3 | 15.9 | 105 | 244 | > 1000 | 611 | > 1000 | 3.12 | 
O=C(NCc1ccc(F)cc1F)c1cn2c(c(O)c1=O)C(=O)N1[C@@H](CF)CO[C@@H]1C2 [Compound 2] | >112 | 1.8 | 12.9 | 3.1 | 14.1 | > 100 | 2.3 | 14.1 | 2.9 | 25.1 | 2.2 | 12.5 | 42.2 | 194 | 82.3 | > 1000 | 0.89 | activity compared with cabotegravir [14]: more active than cabotegravir; EC50 [1, 23]: 0.007 nM; EC90 [1, 23]: 0.37 nM; EC50 [2, 23]: 0.28 nM; EC90 [2, 23]: 1.28 nM; EC50 [5, 23]: 0.02 nM; EC90 [5, 23]: 0.4 nM; activity compared with cabotegravir [15]: better than that of cabotegravir with significant differences
Cc1nnc(C(=O)NC(C)(C)c2nc(C(=O)NCc3ccc(F)cc3)c(O)c(=O)n2C)o1 [Raltegravir, raltegravir] |  | 5.5 | 60.7 | > 1000 | > 1000 |  | 8.1 | 46.2 | 7.1 | 68 | 214 | > 1000 | > 1000 | > 1000 | > 1000 | > 1000 |  | 

Reference: patent US20250188091A1, “PYRIDONE COMPOUND HAVING INTEGRASE INHIBITORY ACTIVITY AND PHARMACEUTICAL USE THEREOF” (priority 2021, published 2025)
